In PMC9735621, “Synthesis, Biological Evaluation and Computational Studies of New Hydrazide Derivatives Containing 1,3,4-Oxadiazole as Antitubercular Agents” (International Journal of Molecular Sciences, 2022):
Several values for one entry are separate records, joined by “and”; a condition that tells them apart may be missing. Equal values may be shown once. Read-outs that look alike come from different tables or passages of the source.

Key:
[1] = test system: M. tuberculosis H37Ra; assay: microbe, parasite or virus in culture; type: cell-based, Mycobacterium tuberculosis
[2] = test system: M. tuberculosis H37Rv; assay: microbe, parasite or virus in culture; type: cell-based; details: Mycobacterium tuberculosis
[3] = Cytotoxicity, resazurin cell viability assay; type: cell-based, human; details: human, SH-SY5Y neuroblastoma cells; SH-SY5Y cells, 48 h; mean ± SEM
Protocol: (§1) Cell viability was assayed by using Resazurin (SERVA Electrophoresis GmbH, Heidelberg, Germany). This cell-permeable dye is reduced by aerobic respiration of metabolically active cells to resorufin, whose fluorescence is proportional to the number of live cells. The stock solution of resazurin sodium salt (440 μM, 10×) was resuspended in Phosphate Buffered Saline (PBS) and stored at −20 °C. Working solution (44 μM) was prepared on the same day of each assay by diluting resazurin stock solution in a standard culture medium. The human neuroblastoma cell line SH-SY5Y was used to test the cytotoxicity of five selected compounds (1h, and 1k–n). The cells were maintained in Dulbecco’s modified Eagle’s medium (DMEM; Gibco, Life Technologies Inc., Frederick, MD, USA) supplemented with 10% (v/v) fetal bovine serum (FBS) and Antibiotic Antimycotic Solution (100 U penicillin, 100 μg/mL streptomycin and 0.25 μg/mL amphotericin B; Sigma-Aldrich, St. Louis, MO, USA) at 37 °C in a humidified incubator with a 5% CO2/95% air atmosphere.
(§2) In the cytotoxicity tests, SH-SY5Y cells were seeded at a density of 5 × 10^3 cells/well in a 96-well plate and grown for another 24 h. Cells were then treated in triplicate with serial dilutions (100 μM, 50 μM, 25 μM, 12.5 μM, 6.25 μM, 3.125 μM) of selected compounds. After 48 h, the culture medium in each well was replaced with 100 μL of Resazurin working solution (44 μM). The fluorescent signal of the resorufin was monitored with Excitation λ = 530 nm and Emission λ = 590 nm by using an Envision 2104 Multi-label Microplate Reader (Perkin Elmer, Boston, MA, USA). Measurements were performed at time 0 and after 1 h of incubation. The percentage of viability was calculated after subtraction of the background (obtained by killing the cells), on the basis of the ratio between the fluorescence values of the cells incubated with a compound and the fluorescence values of cells incubated with the solvent (1% DMSO). The viability of cells incubated with 1% DMSO was considered to be equivalent to 100%. The statistical analysis was carried out with GraphPad Prism 6 (GraphPad Software, Inc., La Jolla, CA, USA) software using an unpaired t-test, and a p-value < 0.05 was considered statistically significant. Cytotoxicity (CC50) was determined from dose-response curves analyzed by using GraphPad Prism software.

[4] = test system: SH-SY5Y cells; assay: Cytotoxicity, resazurin cell viability assay; type: cell-based, human; details: for Cytotoxicity (in words): SH-SY5Y cells, tested concentrations up to 100 μM; for Viability (%) vs DMSO: SH-SY5Y, 48 h, average ± SEM
Protocol: as §1, §2

[5] = Mycobacterium tuberculosis, H37RA

SMILES	MIC [1, 5]	MIC [2] [mg/L]	melting point [°C]	MIC [1]	MIC ([2]; […], value in brackets) [µM]	CC50 at 48 h [3] [µM]	Cytotoxicity (in words) [4]	Viability (%) vs DMSO ([4]; 3.125 µM) [%]	Viability (%) vs DMSO ([4]; 6.25 µM) [%]	Viability (%) vs DMSO ([4]; 12.5 µM) [%]	Viability (%) vs DMSO ([4]; 25 µM) [%]	Viability (%) vs DMSO ([4]; 50 µM) [%]	Viability (%) vs DMSO ([4]; 100 µM) [%]
Cc1ccc(C=NNC(=O)c2nnc(-c3ccccc3)o2)cc1 (mixture of isomers) [1j, (E/Z)-N’-(4-methylbenzyliden)-5-phenyl-1,3,4-oxadiazol-2-carbohydrazide]	16 µg/mL and 52.2 µM	> 64	200 to 202	–	–	–	–	–	–	–	–	–	–
O=C(N/N=C\c1ccccc1)c1nnc(-c2ccncc2)o1 [1a, (Z)-N’-benzyliden-5-(pyridin-4-yl)-1,3,4-oxadiazol-2-carbohydrazide]	64 µg/mL and 218 µM	> 64	207 to 209	–	–	–	–	–	–	–	–	–	–
O=C(N/N=C\c1ccc(Cl)cc1)c1nnc(-c2ccncc2)o1 [1b, (Z)-N’-(4-chlorobenzyliden)-5-(pyridin-4-yl)-1,3,4-oxadiazol-2-carbohydrazide]	> 64 mg/L	> 64	–	>64 (-) μg/mL	–	–	–	–	–	–	–	–	–
Cc1ccc(/C=N\NC(=O)c2nnc(-c3ccncc3)o2)cc1 [1c, (Z)-N’-(4-methylbenzyliden)-5-(pyridin-4-yl)-1,3,4-oxadiazol-2-carbohydrazide]	64 µg/mL and 195 µM	> 64	–	–	–	–	–	–	–	–	–	–	–
O=C(N/N=C\c1ccc[nH]1)c1nnc(-c2ccncc2)o1 [1d, (Z)-N’-((1H-pyrrol-2-yl)methylen)-5-(pyridin-4-yl)-1,3,4-oxadiazol-2-carbohydrazide]	64 µg/mL and 226 µM	> 64	–	–	–	–	–	–	–	–	–	–	–
O=C(N/N=C\c1ccccn1)c1nnc(-c2ccncc2)o1 [1e, (Z)-N’-(pyridin-2-ylmethylen)-5-(pyridin-4-yl)-1,3,4-oxadiazol-2-carbohydrazide]	32 µg/mL and 108 µM	16	255 to 259	–	54	–	–	–	–	–	–	–	–
O=C(N/N=C\c1ccncc1)c1nnc(-c2ccncc2)o1 [1f, (Z)-5-(pyridin-4-yl)-N’-(pyridin-4-ylmethylen)-1,3,4-oxadiazol-2-carbohydrazide]	64 µg/mL and 217 µM	> 64	–	–	–	–	–	–	–	–	–	–	–
O=C(N/N=C\c1ccco1)c1nnc(-c2ccncc2)o1 [1g, (Z)-N’-(furan-2-ylmethylen)-5-(pyridin-4-yl)-1,3,4-oxadiazol-2-carbohydrazide]	64 µg/mL and 226 µM	> 64	236 to 242	–	–	–	–	–	–	–	–	–	–
O=C(N/N=C\c1ccccc1)c1nnc(-c2ccccc2)o1 [1h, (Z)-N’-benzyliden-5-phenyl-1,3,4-oxadiazol-2-carbohydrazide]	8 µg/mL and 27.4 µM	> 64	194 to 196	–	–	> 100	no cytotoxicity at tested concentrations	100 ± 13	99 ± 13	99 ± 11	99 ± 15	100 ± 14	97 ± 12
O=C(N/N=C\c1ccc(Cl)cc1)c1nnc(-c2ccccc2)o1 [1i, (Z)-N’-(4-chlorobenzyliden)-5-phenyl-1,3,4-oxadiazol-2-carbohydrazide]	16 µg/mL and 48.9 µM	> 64	243 to 245	–	–	–	–	–	–	–	–	–	–
O=C(N/N=C\c1ccc[nH]1)c1nnc(-c2ccccc2)o1 [1k, (Z)-N’-((1H-pyrrol-2-yl)methylen)-5-phenyl-1,3,4-oxadiazol-2-carbohydrazide]	8 µg/mL and 28.3 µM	8	185 to 187	–	28.3	50 ± 6	–	100 ± 13	100 ± 13	101 ± 14	81 ± 12	49 ± 7	37 ± 6
O=C(N/N=C\c1ccccn1)c1nnc(-c2ccccc2)o1 [1l, (Z)-5-phenyl-N’-(pyridin-2-ylmethylen)-1,3,4-oxadiazol-2-carbohydrazide]	8 µg/mL and 27.4 µM	8	242 to 243	–	27.1	100 ± 12	–	100 ± 12	100 ± 12	98 ± 13	93 ± 13	70 ± 10	49 ± 7
O=C(N/N=C\c1ccncc1)c1nnc(-c2ccccc2)o1 [1m, (Z)-5-phenyl-N’-(pyridin-4-ylmethylen)-1,3,4-oxadiazol-2-carbohydrazide]	8 µg/mL and 27.4 µM	> 64	243 to 245	–	–	128 ± 16	–	100 ± 14	100 ± 14	98 ± 16	96 ± 14	87 ± 11	61 ± 9
O=C(N/N=C\c1ccco1)c1nnc(-c2ccccc2)o1 [1n, (Z)-N’-(furan-2-ylmethylen)-5-phenyl-1,3,4-oxadiazol-2-carbohydrazide]	8 µg/mL and 28.3 µM	16	221 to 223	–	56.6	> 100	no cytotoxicity at tested concentrations	100 ± 11	100 ± 11	99 ± 15	100 ± 12	100 ± 13	97 ± 11
NNC(=O)c1ccncc1 [INH, Isoniazid, reference compound]	0.25 µg/mL and 1.8 µM	0.25	–	–	1.8	–	–	–	–	–	–	–	–
CO[C@H]1/C=C/O[C@@]2(C)Oc3c(C)c(O)c4c(O)c(c(/C=N/N5CCN(C)CC5)c(O)c4c3C2=O)NC(=O)/C(C)=C\C=C\[C@H](C)[C@H](O)[C@@H](C)[C@@H](O)[C@@H](C)[C@H](OC(C)=O)[C@@H]1C [RIF, reference compound]	–	0.5	–	–	0.6	–	–	–	–	–	–	–	–
